# Reference: article PMC9181887, “In Vitro Antithrombotic, Hematological Toxicity, and Inhibitor Studies of Protocatechuic, Isovanillic, and p-Hydroxybenzoic Acids from Maclura tricuspidata (Carr.) Bur” (Molecules, 2022)
# Tested on: human platelet-poor plasma
# Test: Recalcification time assay
# Type: biochemical
# Procedure: Figure 5 Effect of PA (A), IVA (B), and 4-HA (C) on recalcification time and plasma density. Human platelet-poor plasma was mixed with PA, IVA, and 4-HA dissolved in DMSO in 96-well plates and incubated for 10 min at 37 °C. Thereafter, 100 mM pre-warmed CaCl2 was added to the mixture and absorbance was taken every 60 s at 650 nm for 30 min in a microplate reader. The plasma density was presented as the optical density at 650 nm after 30 min. The half time (s) was presented as reaching a half-maximum absorbance value. NC1, plasma only; NC2, plasma treated with CaCl2; PC, positive control group (1 U heparin); PA1–20, 1–20 μg of PA treated; IVA1–20, 1–20 μg of IVA treated; 4-HA1–20, 1–20 μg of 4-HA treated.
# Recalcification time was measured in a 96-well plate, according to a previously described method, with slight modifications. First, 50 μL of human platelet-poor plasma was mixed with 50 μL of the compounds, vehicle as NC2, or 1 U heparin as PC, and incubated at 37 °C for 10 min. Thereafter, 100 mM pre-warmed CaCl2 was added to the mixture and absorbance was measured at 650 nm every 1 min for 30 min using a microplate reader. The plasma density was presented as the absorbance at 650 nm after 30 min. The half time was presented as reaching a half-maximum absorbance value.
substance,measurement,setting,value
heparin [reference compound],plasma coagulation for 1800 s,1U,completely delayed
same,Absorbance after Reaction,"1 U heparin, 650 nm after 30 min, NC2 0.2094 ± 0.0305",0.0184 ± 0.0016
